Read-outs that look alike come from different tables or passages of the source. Starred links: 1 amine or outer side, 2 acyl side, 3 side chain; linkers in the order of their positions; H or OH if unused. Non-standard residues stand in square brackets, D forms with d. Residues, ends and D or L forms follow the SMILES beside them. Groups on a side chain read outwards from the residue. No end group written: not given here. *: point of attachment. C20 diacid = O=C(O)CCCCCCCCCCCCCCCCCCC(=O)*; C18 diacid = O=C(O)CCCCCCCCCCCCCCCCC(=O)*; αMePhe(2-F) = C[C@](N)(Cc1ccccc1F)C(=O)O; γGlu = O=C(O)[C@H](CCC(=O)[*:2])N[*:1]; αMe4Pal = C[C@](N)(Cc1ccncc1)C(=O)O; αMeY = C[C@](N)(Cc1ccc(O)cc1)C(=O)O; 4Pal = N[C@@H](Cc1ccncc1)C(=O)O; αMeL = CC(C)C[C@](C)(N)C(=O)O; αMeS = C[C@](N)(CO)C(=O)O; Orn = NCCC[C@H](N)C(=O)O; AEEA = NCCOCCOCC(=O)O; Aib = CC(C)(N)C(=O)O
Experiments:
Assay type in all cases: cell-based
[1] = target: T1, hGIPR (Homo sapiens, UniProt P48546); assay: Functional cAMP activity in the presence of 1% HSA; conditions: read-out: cAMP Rel EC50, hGIPR
T1 sequence (P48546 22-466): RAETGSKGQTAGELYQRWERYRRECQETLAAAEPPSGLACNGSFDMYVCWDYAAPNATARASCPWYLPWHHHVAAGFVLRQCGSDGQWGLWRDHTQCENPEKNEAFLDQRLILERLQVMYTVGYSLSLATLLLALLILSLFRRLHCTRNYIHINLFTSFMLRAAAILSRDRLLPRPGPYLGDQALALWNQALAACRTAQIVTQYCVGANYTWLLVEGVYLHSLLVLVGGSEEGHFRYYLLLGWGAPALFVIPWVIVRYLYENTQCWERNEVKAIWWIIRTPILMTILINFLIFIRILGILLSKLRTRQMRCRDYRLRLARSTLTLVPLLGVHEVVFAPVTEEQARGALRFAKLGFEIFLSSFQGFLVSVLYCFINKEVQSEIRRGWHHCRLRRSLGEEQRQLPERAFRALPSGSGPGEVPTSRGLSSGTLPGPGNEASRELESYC

[2] = target: T2, hGLP-1R (Homo sapiens, UniProt P43220); assay: Functional cAMP activity in the presence of 1% HSA; conditions: read-out: cAMP Rel EC50, hGLP-1R
T2 sequence (P43220 24-463): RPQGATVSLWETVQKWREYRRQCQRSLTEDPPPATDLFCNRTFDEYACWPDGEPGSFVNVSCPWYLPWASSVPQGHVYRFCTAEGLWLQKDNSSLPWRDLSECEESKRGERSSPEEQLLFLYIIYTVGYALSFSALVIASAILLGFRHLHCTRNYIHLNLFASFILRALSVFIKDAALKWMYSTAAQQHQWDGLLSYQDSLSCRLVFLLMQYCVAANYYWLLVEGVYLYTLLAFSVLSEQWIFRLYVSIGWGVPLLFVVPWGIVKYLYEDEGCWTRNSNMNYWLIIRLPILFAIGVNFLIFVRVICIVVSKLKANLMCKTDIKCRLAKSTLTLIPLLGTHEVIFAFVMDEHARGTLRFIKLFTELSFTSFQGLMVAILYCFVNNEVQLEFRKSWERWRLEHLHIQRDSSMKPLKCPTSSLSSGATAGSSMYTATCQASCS

[3] = target: human GcgR (Homo sapiens, UniProt P47871); assay: Functional cAMP activity in the presence of 1% HSA; conditions: read-out: cAMP Rel EC50, hGcgR
Chain of human GcgR (P47871 26-477): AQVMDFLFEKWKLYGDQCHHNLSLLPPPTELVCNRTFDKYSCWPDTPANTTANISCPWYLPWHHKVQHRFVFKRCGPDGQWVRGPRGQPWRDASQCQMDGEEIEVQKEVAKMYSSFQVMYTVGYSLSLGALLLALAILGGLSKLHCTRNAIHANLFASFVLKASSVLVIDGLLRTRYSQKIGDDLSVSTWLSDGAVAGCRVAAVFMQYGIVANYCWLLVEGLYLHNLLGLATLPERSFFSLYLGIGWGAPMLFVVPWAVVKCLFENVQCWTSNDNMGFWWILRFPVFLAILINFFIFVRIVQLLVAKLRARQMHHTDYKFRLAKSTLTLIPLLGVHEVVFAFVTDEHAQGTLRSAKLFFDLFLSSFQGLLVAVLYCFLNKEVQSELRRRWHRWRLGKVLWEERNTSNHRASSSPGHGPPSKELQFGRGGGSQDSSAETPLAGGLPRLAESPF

[4] = target: T1, hGIPR; assay: Functional cAMP activation in the presence of 0.1% casein (no HSA); conditions: read-out: Relative cAMP EC50, hGIPR;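 as to Relative cAMP EC50, hGIPR: intracellular cAMP rise after 30 min at 37 °C read by HTRF against a standard curve, scaled between buffer alone (0%) and top control ligand concentration (100%), four-parameter fit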;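 as to Relative cAMP EC50, hGLP-1R: intracellular cAMP rise after 30 min at 37 °C read by HTRF, normalized between buffer only (0%) and maximal control ligand (100%), four-parameter variable-slope fit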;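 as to Relative cAMP EC50, hGcgR: intracellular cAMP rise after 30 min at 37 °C, read by HTRF against a cAMP standard curve, scaled from buffer only (0%) to maximal control ligand response (100%)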
[5] = target: T2, hGLP-1R; assay: as above; conditions: read-out: Relative cAMP EC50, hGLP-1R
[6] = target: hGcgR (Homo sapiens, UniProt P47871); assay: as above; conditions: read-out: Relative cAMP EC50, hGcgR;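 also: intracellular cAMP rise after 30 min at 37 °C, read by HTRF against a cAMP standard curve, scaled from buffer only (0%) to maximal control ligand response (100%)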
Chain of hGcgR (P47871 26-477): as above

[7] = in the presence of 0.1% casein (no HSA), geometric mean
[8] = HEK-293 clonal cell line, 1% HSA, geometric mean of relative EC50
[9] = in the presence of 0.1% casein (no HSA), geometric mean of relative EC50

Molecule	EC50 [4] [nM]	EC50 [5] [nM]	EC50 [6] [nM]	EC50 [1, 8] [nM]	EC50 [2, 8] [nM]	EC50 [3, 8] [nM]	EC50 [4, 9] [nM]	EC50 [5, 9] [nM]	EC50 [6, 9] [nM]	EC50 [1] [nM]	EC50 [2] [nM]	EC50 [3] [nM]	EC50 [4, 7] [nM]	EC50 [5, 7] [nM]	EC50 [6, 7] [nM]
CC[C@H](C)[C@H](NC(=O)[C@H](Cc1ccccc1)NC(=O)[C@H](C)NC(=O)[C@](C)(Cc1ccncc1)NC(=O)[C@H](CCC(N)=O)NC(=O)[C@H](C)NC(=O)[C@H](CCCCNC(=O)CC[C@H](NC(=O)CC[C@H](NC(=O)CCCCCCCCCCCCCCCCC(=O)O)C(=O)O)C(=O)O)NC(=O)[C@H](CCCCN)NC(=O)[C@H](CC(=O)O)NC(=O)[C@H](CC(C)C)NC(=O)[C@](C)(CC(C)C)NC(=O)[C@H](CCC(N)=O)NC(=O)[C@H](CO)NC(=O)[C@H](Cc1ccncc1)NC(=O)[C@H](CC(=O)O)NC(=O)[C@H](CO)NC(=O)[C@@H](NC(=O)[C@H](Cc1ccccc1)NC(=O)[C@@H](NC(=O)CNC(=O)[C@H](CCC(N)=O)NC(=O)C(C)(C)NC(=O)[C@@H](N)Cc1ccc(O)cc1)[C@@H](C)O)[C@@H](C)O)C(=O)N[C@@H](CCC(=O)O)C(=O)N[C@@H](Cc1ccc(O)cc1)C(=O)N[C@@H](CC(C)C)C(=O)N[C@H](C(=O)N[C@@H](CCC(=O)O)C(=O)N[C@H](C)C(=O)NCC(=O)N1CCC[C@H]1C(=O)N[C@@H](CO)C(=O)N[C@@H](CO)C(=O)NCC(=O)N[C@@H](C)C(=O)N1CCC[C@H]1C(=O)N1CCC[C@H]1C(=O)N1CCC[C@H]1C(=O)N[C@@H](CO)C(=O)NCC(=O)N[C@@H](CO)C(=O)N[C@@H](CCC(=O)O)C(N)=O)[C@@H](C)CC [Example 1025]	–	–	–	–	–	–	–	–	–	31.5	352	625	0.18	2.45	3.22
H-Y[Aib]QGTFTSDFS[Orn][αMeL]LDKK([AEEA-AEEA-γGlu-C18 diacid])AQ[Aib]AFIEYLLE[dA]GPSSG[4Pal]PPPSG[4Pal]-NH2 [Example 258]	–	–	–	–	–	–	–	–	–	23.3	492	1280	0.154	2.71	7.15
H-Y[Aib]QGTFTSDYSI[αMeL]LDKQAAK([AEEA-AEEA-γGlu-C20 diacid])QFVNWLLA[Aib]GPSSGEPPPSEG-NH2 [Example 325]	–	–	–	–	–	–	–	–	–	82.7	371	774	0.351	1.56	2.43
H-Y[Aib]QGTFTSDFS[Orn][αMeL]LDKK([AEEA-γGlu-C18 diacid])AQ[Aib]AFIEYLLEGGPSSGAPPPGG[4Pal]-NH2 [Example 261]	–	–	–	–	–	–	–	–	–	38.4	383	520	0.29	3.12	5.49
H-Y[Aib]QGT[αMePhe(2-F)]TSD[4Pal][αMeS]I[αMeL]LD[Orn]K([AEEA-γGlu-C18 diacid])AQ[αMe4Pal]EFI[dE][αMeY]LIEGGPSSGAPPPEGGGE-NH2 [Example 759]	0.00676	0.262	1.29	–	–	–	–	–	–	1.05	34.8	223	–	–	–
H-Y[Aib]QGT[αMePhe(2-F)]TSD[4Pal][αMeS]I[αMeL]LD[Orn]K([γGlu-γGlu-C18 diacid])AA[Aib]EFI[dE][αMeY]LIEGGPSSGAPPPSGGGE-NH2 [Example 747]	0.00955	0.229	1.71	–	–	–	–	–	–	0.651	20.3	169	–	–	–
CC[C@H](C)[C@H](NC(=O)[C@H](CC(C)C)NC(=O)[C@](C)(Cc1ccc(O)cc1)NC(=O)[C@H](CCC(=O)O)NC(=O)[C@@H](NC(=O)[C@H](Cc1ccccc1)NC(=O)[C@H](CCC(N)=O)NC(=O)[C@](C)(Cc1ccncc1)NC(=O)[C@H](CCC(N)=O)NC(=O)[C@H](C)NC(=O)[C@H](CCCCNC(=O)COCCOCCNC(=O)CC[C@H](NC(=O)CCCCCCCCCCCCCCCCC(=O)O)C(=O)O)NC(=O)[C@H](CCCN)NC(=O)[C@H](CC(=O)O)NC(=O)[C@H](CC(C)C)NC(=O)[C@](C)(CC(C)C)NC(=O)[C@H](CCC(N)=O)NC(=O)[C@H](CO)NC(=O)[C@H](Cc1ccncc1)NC(=O)[C@H](CC(=O)O)NC(=O)[C@H](CO)NC(=O)[C@@H](NC(=O)[C@H](Cc1ccccc1)NC(=O)[C@@H](NC(=O)CNC(=O)[C@H](CCC(N)=O)NC(=O)C(C)(C)NC(=O)[C@@H](N)Cc1ccc(O)cc1)[C@@H](C)O)[C@@H](C)O)[C@@H](C)CC)C(=O)N[C@@H](CCC(=O)O)C(=O)NC(C)(C)C(=O)NCC(=O)N1CCC[C@H]1C(=O)N[C@@H](CO)C(=O)N[C@@H](CO)C(=O)NCC(=O)N[C@@H](C)C(=O)N1CCC[C@H]1C(=O)N1CCC[C@H]1C(=O)N1CCC[C@H]1C(=O)N[C@@H](CO)C(=O)NCC(=O)N[C@@H](CO)C(=O)N[C@@H](CCC(=O)O)C(=O)N[C@@H](CCC(=O)O)C(N)=O [Example 1109]	–	–	–	–	–	–	–	–	–	20.2	102	510	0.0626	2.3	10.8
Y[Aib]QGTFTSDFS[Orn][αMeL]LDKK([γGlu-γGlu-C18 diacid])AQ[Aib]AFIEYLLEGGPSSGAPPPSGT-NH2 [Example 260]	–	–	–	–	–	–	–	–	–	12.4	160	162	0.251	3.85	5.04

Continued, in another order:

EC50 [4] [nM]	EC50 [5] [nM]	EC50 [6] [nM]	EC50 [1, 8] [nM]	EC50 [2, 8] [nM]	EC50 [3, 8] [nM]	EC50 [4, 9] [nM]	EC50 [5, 9] [nM]	EC50 [6, 9] [nM]	Molecule	EC50 [1] [nM]	EC50 [2] [nM]	EC50 [3] [nM]	EC50 [4, 7] [nM]	EC50 [5, 7] [nM]	EC50 [6, 7] [nM]
0.212	1.13	5.43	–	–	–	–	–	–	H-Y[Aib]QGT[αMePhe(2-F)]TSD[4Pal][αMeS]I[αMeL]LD[Orn]K([γGlu-γGlu-C18 diacid])AQ[Aib][Orn]FI[dE][αMeY]LSEGGPSSGEPPPSGTEE-NH2 [Example 561]	10.1	76.1	544	–	–	–
0.0127	0.271	2.7	–	–	–	–	–	–	H-Y[Aib]QGT[αMePhe(2-F)]TSD[4Pal]SI[αMeL]LD[Orn]K([AEEA-γGlu-C18 diacid])AQ[αMe4Pal][Orn]FI[dE][αMeY]LIEGGPSSGEPPPESEE-NH2 [Example 753]	1.86	38.2	351	–	–	–
–	–	–	2.39	36	1090	0.0354	0.4	14	H-Y[Aib]QGT[αMePhe(2-F)]TSD[4Pal]SI[αMeL]LDKK([γGlu-γGlu-C18 diacid])AQ[Aib][Orn]FIEYLTEGGPSSGEPPPSGSEE-NH2 [Example 638]	–	–	–	–	–	–
–	–	–	2.96	74.5	872	0.0233	0.762	8.07	H-Y[Aib]QGT[αMePhe(2-F)]TSD[4Pal]SI[αMeL]LDKK([γGlu-γGlu-C18 diacid])AQ[Aib]AFIEYLEEGGPSSGEPPPSGSEE-NH2 [Example 630]	–	–	–	–	–	–
0.0122	0.179	1.21	–	–	–	–	–	–	CC[C@H](C)[C@H](NC(=O)[C@H](CC(C)C)NC(=O)[C@H](Cc1ccc(O)cc1)NC(=O)[C@H](CCC(=O)O)NC(=O)[C@@H](NC(=O)[C@H](Cc1ccccc1)NC(=O)[C@H](CCCN)NC(=O)C(C)(C)NC(=O)[C@H](CCC(N)=O)NC(=O)[C@H](C)NC(=O)[C@H](CCCCNC(=O)COCCOCCNC(=O)CC[C@H](NC(=O)CCCCCCCCCCCCCCCCC(=O)O)C(=O)O)NC(=O)[C@H](CCCN)NC(=O)[C@H](CC(=O)O)NC(=O)[C@H](CC(C)C)NC(=O)[C@](C)(CC(C)C)NC(=O)[C@@H](NC(=O)[C@](C)(CO)NC(=O)[C@H](Cc1ccncc1)NC(=O)[C@H](CC(=O)O)NC(=O)[C@H](CO)NC(=O)[C@@H](NC(=O)[C@](C)(Cc1ccccc1F)NC(=O)[C@@H](NC(=O)CNC(=O)[C@H](CCC(N)=O)NC(=O)C(C)(C)NC(=O)[C@@H](N)Cc1ccc(O)cc1)[C@@H](C)O)[C@@H](C)O)[C@@H](C)CC)[C@@H](C)CC)C(=O)N[C@@H](CCC(=O)O)C(=O)NCC(=O)NCC(=O)N1CCC[C@H]1C(=O)N[C@@H](CO)C(=O)N[C@@H](CO)C(=O)NCC(=O)N[C@@H](CCC(=O)O)C(=O)N1CCC[C@H]1C(=O)N1CCC[C@H]1C(=O)N1CCC[C@H]1C(=O)N[C@@H](CCC(=O)O)C(N)=O [Example 459] (H-Y[Aib]QGT[αMePhe(2-F)]TSD[4Pal][αMeS]I[αMeL]LD[Orn]K([AEEA-γGlu-C18 diacid])AQ[Aib][Orn]FIEYLIEGGPSSGEPPPE-NH2)	2.06	12.6	73.6	–	–	–

Source: patent US20240270821A1, “GIP/GLP1/GCG TRI-RECEPTOR AGONISTS AND USES THEREOF” (priority 2023, published 2024)
